Experimental data published in ChEMBL document CHEMBL3351398, “Discovery of a Potent and Selective DGAT1 Inhibitor with a Piperidinyl-oxy-cyclohexanecarboxylic Acid Moiety” (ACS Med Chem Lett, 2014).

Experiment: Half life in Sprague-Dawley rat at 1 mg/kg, iv or 2 mg/kg, po
Type: ADME, organism-based
Conditions: in vivo

half-life: 54.6 min
SMILES: O=C(O)[C@H]1CC[C@H](OC2CCN(c3ccc(-c4nc5cc(C(F)(F)F)ccc5[nH]4)cn3)CC2)CC1
